According to PubChem BioAssay AID248 (DTP/NCI, 2004):
Several values for one entry are separate records, joined by “and”; a condition that tells them apart may be missing. Equal values may be shown once. Inconclusive results and toxic doses are left out. No stated cut-off is given here; in the data, active means T/C of 150% or more; inactive means T/C below 125%.

System: L1210 leukemia ip in BDF1 mice, survival T/C
Test: NCI In Vivo Anticancer Drug Screen. Data for tumor model L1210 Leukemia (intraperitoneal) in B6D2F1 (BDF1) mice
Details: endpoint: mean survival time, higher = longer survival
How it was run: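 Transplanted-tumor mice were given test agent; controls received vehicle only. Survival readings from the two groups were divided (treated over control).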

[1] = dose: 100.0 mg/kg/injection, schedule: Q01DX001 (ip), vehicle: carboxymethylcellulose (CMC)
[2] = dose: 200.0 mg/kg/injection, schedule: Q01DX001 (ip), vehicle: carboxymethylcellulose (CMC)
[3] = dose: 400.0 mg/kg/injection, schedule: Q01DX001 (ip), vehicle: carboxymethylcellulose (CMC)
[4] = dose: 100.0 mg/kg/injection, schedule: Q04DX002 (ip), vehicle: saline with Tween-80
[5] = dose: 200.0 mg/kg/injection, schedule: Q04DX002 (ip), vehicle: saline with Tween-80
[6] = dose: 400.0 mg/kg/injection, schedule: Q04DX002 (ip), vehicle: saline with Tween-80
[7] = dose: 3.12 mg/kg/injection, schedule: Q01DX009 (ip), vehicle: saline
[8] = dose: 6.25 mg/kg/injection, schedule: Q01DX009 (ip), vehicle: saline
[9] = dose: 12.5 mg/kg/injection, schedule: Q01DX009 (ip), vehicle: saline
[10] = dose: 25.0 mg/kg/injection, schedule: Q01DX009 (ip), vehicle: saline
[11] = dose: 50.0 mg/kg/injection, schedule: Q01DX009 (ip), vehicle: saline
[12] = dose: 100.0 mg/kg/injection, schedule: Q04DX002 (ip), vehicle: Klucel (hydroxypropylcellulose) (HPC)
[13] = dose: 200.0 mg/kg/injection, schedule: Q04DX002 (ip), vehicle: Klucel (hydroxypropylcellulose) (HPC)
[14] = dose: 50.0 mg/kg/injection, schedule: Q01DX001 (ip), vehicle: saline with Tween-80
[15] = dose: 100.0 mg/kg/injection, schedule: Q01DX001 (ip), vehicle: saline with Tween-80
[16] = dose: 200.0 mg/kg/injection, schedule: Q01DX001 (ip), vehicle: saline with Tween-80
[17] = dose: 100.0 mg/kg/injection, schedule: Q04DX003 (ip), vehicle: Klucel (hydroxypropylcellulose) (HPC)
[18] = dose: 200.0 mg/kg/injection, schedule: Q04DX003 (ip), vehicle: Klucel (hydroxypropylcellulose) (HPC)
[19] = dose: 25.0 mg/kg/injection, schedule: Q01DX001 (ip), vehicle: saline with Tween-80
[20] = dose: 50.0 mg/kg/injection, schedule: Q01DX009 (ip), vehicle: saline with Tween-80
[21] = dose: 100.0 mg/kg/injection, schedule: Q01DX009 (ip), vehicle: saline with Tween-80
[22] = dose: 200.0 mg/kg/injection, schedule: Q01DX009 (ip), vehicle: saline with Tween-80
[23] = dose: 400.0 mg/kg/injection, schedule: Q04DX003 (ip), vehicle: Klucel (hydroxypropylcellulose) (HPC)
[24] = dose: 200.0 mg/kg/injection, schedule: Q04DX003 (ip), vehicle: saline

Measured: T/C

C[CH2][Pb]([CH2]C)([CH2]C)[O]C(C)=O
inactive: dose: 0.62 mg/kg/injection, schedule: Q01DX009 (ip), vehicle: Klucel (hydroxypropylcellulose) (HPC) 96 % of control | dose: 1.25 mg/kg/injection, schedule: Q01DX009 (ip), vehicle: Klucel (hydroxypropylcellulose) (HPC) 102 % of control | dose: 2.5 mg/kg/injection, schedule: Q01DX009 (ip), vehicle: Klucel (hydroxypropylcellulose) (HPC) 93 % of control and 94 % of control | dose: 5.0 mg/kg/injection, schedule: Q01DX001 (ip), vehicle: carboxymethylcellulose (CMC) 100 % of control | dose: 5.0 mg/kg/injection, schedule: Q04DX003 (ip), vehicle: Klucel (hydroxypropylcellulose) (HPC) 90 % of control | dose: 10.0 mg/kg/injection, schedule: Q01DX001 (ip), vehicle: carboxymethylcellulose (CMC) 103 % of control | dose: 10.0 mg/kg/injection, schedule: Q04DX003 (ip), vehicle: Klucel (hydroxypropylcellulose) (HPC) 95 % of control

Cc1ccc(S(=O)(=O)Nc2cc(C)cc(CCN)c2C)cc1
inactive: dose: 50.0 mg/kg/injection, schedule: Q01DX001 (ip), vehicle: carboxymethylcellulose (CMC) 98 % of control | [1] 101 % of control | [2] 98 % of control | [3] 93 % of control

Nc1ccn(CC(=O)c2cc3ccccc3[nH]2)c(=O)n1
inactive: [4] 101 % of control | [5] 97 % of control | [6] 108 % of control

CCCN(CCC)CC(=O)N1CC(=O)Nc2ccccc21
inactive: dose: 25.0 mg/kg/injection, schedule: Q01DX009 (ip), vehicle: acetone 98 % of control | dose: 50.0 mg/kg/injection, schedule: Q01DX009 (ip), vehicle: acetone 96 % of control | dose: 100.0 mg/kg/injection, schedule: Q01DX009 (ip), vehicle: acetone 95 % of control | dose: 100.0 mg/kg/injection, schedule: Q04DX003 (ip), vehicle: acetone 103 % of control | dose: 200.0 mg/kg/injection, schedule: Q04DX003 (ip), vehicle: acetone 103 % of control

CN(C)CCN1C(=O)CC(c2ccccc2)Sc2ccccc21 (centres undefined)
inactive: [7] 98 % of control | [8] 118 % of control | [9] 101 % of control | [10] 107 % of control | dose: 25.0 mg/kg/injection, schedule: Q04DX003 (ip), vehicle: saline 102 % of control | [11] 113 % of control | dose: 50.0 mg/kg/injection, schedule: Q04DX003 (ip), vehicle: saline 113 % of control

Cc1ccc(/C(C#N)=C/C2CCC(N(C)C)CC2)cc1 (centres undefined)
inactive: [4] 87 % of control | [5] 93 % of control | [6] 87 % of control

CCOC(=O)NCc1cccc2ccccc12
inactive: dose: 50.0 mg/kg/injection, schedule: Q01DX001 (ip), vehicle: Klucel (hydroxypropylcellulose) (HPC) 93 % of control | dose: 100.0 mg/kg/injection, schedule: Q01DX001 (ip), vehicle: Klucel (hydroxypropylcellulose) (HPC) 98 % of control | dose: 200.0 mg/kg/injection, schedule: Q01DX001 (ip), vehicle: Klucel (hydroxypropylcellulose) (HPC) 90 % of control | dose: 400.0 mg/kg/injection, schedule: Q01DX001 (ip), vehicle: Klucel (hydroxypropylcellulose) (HPC) 86 % of control

CCCCCCCC(CC(=O)O)OC(=O)CC(CCCCCCC)OC1OC(C)C(O)C(O)C1OC1OC(C)C(O)C(O)C1O (centres undefined)
inactive: [12] 102 % of control | [13] 102 % of control

CNC(=O)c1ccc(Cl)c(S(=O)(=O)NC)c1
inactive: [12] 100 % of control | [13] 104 % of control | dose: 400.0 mg/kg/injection, schedule: Q04DX002 (ip), vehicle: Klucel (hydroxypropylcellulose) (HPC) 107 % of control

CCCCCCCCCCC(CCCCCCCCCC)CC(C)(C)C
inactive: [14] 103 % of control | [15] 96 % of control | [16] 103 % of control

O=C1c2ccccc2-c2cc([N+](=O)[O-])c(NC(=O)C(Cl)Cl)cc21
inactive: [1] 96 % of control | [2] 107 % of control | [3] 102 % of control

CCCCNC(=S)NCCCN(C)C
inactive: [17] 101 % of control | [18] 98 % of control

NC(=S)N/N=C/c1ccc(Cl)cn1
inactive: dose: 7.33 mg/kg/injection, schedule: Q04DX003 (ip), vehicle: saline with Tween-80 97 % of control | dose: 11.0 mg/kg/injection, schedule: Q01DX001 (ip), vehicle: saline with Tween-80 95 % of control | dose: 11.0 mg/kg/injection, schedule: Q04DX003 (ip), vehicle: saline with Tween-80 104 % of control | dose: 16.5 mg/kg/injection, schedule: Q01DX001 (ip), vehicle: saline with Tween-80 105 % of control | dose: 16.5 mg/kg/injection, schedule: Q04DX003 (ip), vehicle: saline with Tween-80 116 % of control | [19] 111 % of control | dose: 25.0 mg/kg/injection, schedule: Q04DX003 (ip), vehicle: saline with Tween-80 121 % of control

CCCCCCOC(=O)C(O)c1ccccc1 (centres undefined)
inactive: [20] 95 % of control | [21] 98 % of control | [22] 95 % of control

Cc1cc(Cl)n[nH]c1=O
inactive: dose: 100.0 mg/kg/injection, schedule: Q01DX001 (ip), vehicle: saline 105 % of control | dose: 200.0 mg/kg/injection, schedule: Q01DX001 (ip), vehicle: saline 104 % of control | dose: 400.0 mg/kg/injection, schedule: Q01DX001 (ip), vehicle: saline 102 % of control

Cc1ncc(C(=O)O)s1
inactive: [17] 90 % of control | [18] 95 % of control | [23] 98 % of control

CCCCSP(=S)(Cc1ccccc1)SCCCC
inactive: [17] 95 % of control | [18] 93 % of control

NC(=O)C(O)C(O)C(O)C(O)C(N)=O (centres undefined)
inactive: [11] 100 % of control | dose: 100.0 mg/kg/injection, schedule: Q01DX009 (ip), vehicle: saline 98 % of control | dose: 100.0 mg/kg/injection, schedule: Q04DX003 (ip), vehicle: saline 92 % of control | dose: 200.0 mg/kg/injection, schedule: Q01DX009 (ip), vehicle: saline 93 % of control | [24] 93 % of control

CCCNC(=O)NS(=O)(=O)c1ccc(Cl)cc1
inactive: [17] 93 % of control | [18] 94 % of control | [23] 104 % of control

CC(=O)OC1CCC2(C)C(CCC3(C)C2CC=C2C4C(C)C(C)CCC4(C)CCC23C)C1(C)C (centres undefined)
inactive: [17] 91 % of control | [18] 88 % of control | [23] 90 % of control

O=C(O)c1ccc(CCCCc2ccccc2)cc1
inactive: [19] 103 % of control | [14] 121 % of control | [15] 107 % of control

O=c1oc(-c2ccccc2)nc2c(Cl)ccc(Cl)c12
inactive: dose: 25.0 mg/kg/injection, schedule: Q01DX009 (ip), vehicle: Klucel (hydroxypropylcellulose) (HPC) 110 % of control | dose: 50.0 mg/kg/injection, schedule: Q01DX009 (ip), vehicle: Klucel (hydroxypropylcellulose) (HPC) 105 % of control | dose: 75.0 mg/kg/injection, schedule: Q01DX009 (ip), vehicle: Klucel (hydroxypropylcellulose) (HPC) 102 % of control

NC(=S)c1cccc(OCCc2ccccc2)c1
inactive: [15] 97 % of control | [16] 102 % of control

NC(=O)c1cn(C2OC(CO)C(O)C2O)c2nc(Cl)nc(N)c12 (centres undefined)
inactive: [7] 96 % of control | [8] 106 % of control | [9] 101 % of control | [10] 106 % of control | [24] 115 % of control

S=P1(c2ccccc2)Nc2ccc(Cl)cc2N1 (centres undefined)
inactive: dose: 75.0 mg/kg/injection, schedule: Q04DX002 (ip), vehicle: gum acacia 104 % of control | dose: 150.0 mg/kg/injection, schedule: Q04DX002 (ip), vehicle: gum acacia 104 % of control | dose: 300.0 mg/kg/injection, schedule: Q04DX002 (ip), vehicle: gum acacia 101 % of control

OC1CCCCC1c1ccccc1 (centres undefined)
inactive: [20] 87 % of control | [21] 87 % of control | [22] 97 % of control
